Laboratory results as given in ChEMBL document CHEMBL1201862, “PubChem BioAssay data set” (2004).
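Compound exposure: 48 hours, 5 concentrations, 96-well plates. Here, GI50 denotes the concentration required for 50% inhibition of growth.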 Activity calls are given as the source filed them. Cut-off read from the data, not from the text of the source: active = GI50 up to about 1.1 µM and inactive = higher.

Columns and labels:
Assay in all cases: NCI tumour cell line growth inhibition, 48 h
[1] = tested on: A549
[2] = tested on: Malme-3M
[3] = tested on: HCC 2998
[4] = tested on: RPMI-8226
[5] = tested on: TK-10
[6] = tested on: MDA-MB-231
[7] = tested on: IGROV-1
[8] = tested on: UO-31
[9] = tested on: NCI-H23
[10] = tested on: CAKI-1
[11] = tested on: SNB-19
[12] = tested on: CCRF-CEM
[13] = tested on: RXF 393
[14] = tested on: M14
[15] = tested on: SR
[16] = tested on: HCT-116
[17] = tested on: MOLT-4
[18] = tested on: SNB-75
[19] = tested on: 786-0
[20] = tested on: SF-539
[21] = tested on: MDA-N
[22] = tested on: T47D
[23] = tested on: NCI-H226
[24] = tested on: OVCAR-3
[25] = tested on: MDA-MB-435
[26] = tested on: NCI/ADR-RES
[27] = tested on: Hs-578T
[28] = tested on: HOP-62
[29] = tested on: SF-295
[30] = tested on: MCF7
[31] = tested on: U-251
[32] = tested on: HOP-92
[33] = tested on: SK-MEL-5
[34] = tested on: OVCAR-5
[35] = tested on: HT-29
[36] = tested on: NCI-H522
[37] = tested on: SK-MEL-28
[38] = tested on: DU-145
[39] = tested on: COLO 205
[40] = tested on: SF-268
[41] = tested on: SW-620
[42] = tested on: UACC-257
[43] = tested on: ACHN
[44] = tested on: NCI-H460
[45] = tested on: HL-60
[46] = tested on: OVCAR-8
[47] = tested on: SN12C
[48] = tested on: SK-MEL-2
[49] = tested on: LOX IMVI
[50] = tested on: A498
[51] = tested on: KM12
[52] = tested on: UACC-62
[53] = tested on: K562
[54] = tested on: EKVX
[55] = tested on: HCT-15
[56] = tested on: SK-OV-3
[57] = tested on: OVCAR-4
[58] = tested on: PC-3
[59] = tested on: BT-549

CCOC(=O)c1ccc2nc(-c3ccc(S(=O)(=O)F)cc3)cc(O)c2c1
GI50 [1]: 53.3 µM (inactive) | GI50 [2]: 25.1 µM (inactive) | GI50 [3]: 14.5 µM (inactive) | GI50 [4]: 45.9 µM (inactive) | GI50 [5]: 27.7 µM (inactive) | GI50 [6]: 36.3 µM (inactive) | GI50 [7]: 48.8 µM (inactive) | GI50 [8]: 71 µM (inactive) | GI50 [9]: 21.6 µM (inactive) | GI50 [10]: 39.9 µM (inactive) | GI50 [11]: > 100 µM (inactive) | GI50 [12]: 30.7 µM (inactive) | GI50 [13]: 31.9 µM (inactive) | GI50 [14]: 40.9 µM (inactive) | GI50 [15]: 35.5 µM (inactive) | GI50 [16]: 23.1 µM (inactive) | GI50 [17]: 36.8 µM (inactive) | GI50 [18]: 25.2 µM (inactive) | GI50 [19]: 36.4 µM (inactive) | GI50 [20]: 56.5 µM (inactive) | GI50 [21]: 33.5 µM (inactive) | GI50 [22]: 25.1 µM (inactive) | GI50 [23]: > 100 µM (inactive) | GI50 [24]: 19.6 µM (inactive) | GI50 [25]: 40.9 µM (inactive) | GI50 [26]: > 100 µM (inactive) | GI50 [27]: 54.8 µM (inactive) | GI50 [28]: 32.5 µM (inactive) | GI50 [29]: 39.8 µM (inactive) | GI50 [30]: 30.1 µM (inactive) | GI50 [31]: 34.9 µM (inactive) | GI50 [32]: > 100 µM (inactive) | GI50 [33]: 50.2 µM (inactive) | GI50 [34]: > 100 µM (inactive) | GI50 [35]: 62.1 µM (inactive) | GI50 [36]: 15.8 µM (inactive) | GI50 [37]: 59.6 µM (inactive) | GI50 [38]: 48.9 µM (inactive) | GI50 [39]: 58.9 µM (inactive) | GI50 [40]: 60.8 µM (inactive) | GI50 [41]: 76.7 µM (inactive) | GI50 [42]: 51.8 µM (inactive) | GI50 [43]: 24.2 µM (inactive) | GI50 [44]: 34.4 µM (inactive) | GI50 [45]: 26.7 µM (inactive) | GI50 [46]: 61.2 µM (inactive) | GI50 [47]: 43.9 µM (inactive) | GI50 [48]: 27.5 µM (inactive) | GI50 [49]: 36.5 µM (inactive) | GI50 [50]: 14.8 µM (inactive) | GI50 [51]: 29.8 µM (inactive) | GI50 [52]: 24 µM (inactive) | GI50 [53]: 42.8 µM (inactive) | GI50 [54]: > 100 µM (inactive) | GI50 [55]: 31.6 µM | GI50 [56]: 38.9 µM (inactive) | GI50 [57]: 65.3 µM (inactive) | GI50 [58]: 50.6 µM (inactive) | GI50 [59]: 37.8 µM (inactive)

CC(=O)OCC(=O)O[C@@H]1[C@H]2[C@@H](OC(=O)c3ccccc3)[C@@H](C)C[C@]2(O)[C@H](OC(C)=O)[C@@]2(C)C(OC(C)=O)[C@]1(OC(C)=O)C[C@H]1C(=O)C(C)(C)C[C@@H]12 (stereo partly drawn)
GI50 [1]: 9.98 µM (inactive) | GI50 [2]: 35.9 µM (inactive) | GI50 [3]: 25.8 µM (inactive) | GI50 [4]: 13.3 µM (inactive) | GI50 [5]: > 50 µM (inactive) | GI50 [6]: > 50 µM (inactive) | GI50 [7]: > 50 µM (inactive) | GI50 [8]: > 50 µM (inactive) | GI50 [9]: > 50 µM (inactive) | GI50 [10]: 37.6 µM (inactive) | GI50 [11]: > 50 µM (inactive) | GI50 [12]: > 11.2 µM (inactive) | GI50 [13]: > 50 µM (inactive) | GI50 [14]: > 50 µM (inactive) | GI50 [15]: > 50 µM (inactive) | GI50 [16]: > 50 µM (inactive) | GI50 [17]: > 19.6 µM (inactive) | GI50 [18]: > 50 µM (inactive) | GI50 [19]: > 50 µM (inactive) | GI50 [20]: 34.5 µM (inactive) | GI50 [21]: 18.1 µM (inactive) | GI50 [22]: > 50 µM (inactive) | GI50 [23]: > 50 µM (inactive) | GI50 [24]: > 46.6 µM (inactive) | GI50 [25]: 26.2 µM (inactive) | GI50 [26]: > 50 µM (inactive) | GI50 [27]: > 26.9 µM (inactive) | GI50 [28]: > 22.6 µM (inactive) | GI50 [29]: 22.4 µM (inactive) | GI50 [30]: > 50 µM (inactive) | GI50 [31]: > 50 µM (inactive) | GI50 [32]: > 31.7 µM (inactive) | GI50 [33]: 31 µM (inactive) | GI50 [34]: > 50 µM (inactive) | GI50 [35]: 25.8 µM (inactive) | GI50 [36]: > 50 µM (inactive) | GI50 [37]: > 50 µM (inactive) | GI50 [38]: > 50 µM (inactive) | GI50 [39]: 12.8 µM (inactive) | GI50 [40]: > 50 µM (inactive) | GI50 [41]: > 50 µM (inactive) | GI50 [42]: > 50 µM (inactive) | GI50 [43]: > 45.3 µM (inactive) | GI50 [44]: 4.12 µM (inactive) | GI50 [45]: 6.46 µM (inactive) | GI50 [46]: > 50 µM (inactive) | GI50 [47]: > 50 µM (inactive) | GI50 [48]: > 50 µM (inactive) | GI50 [49]: > 50 µM (inactive) | GI50 [50]: 29.1 µM (inactive) | GI50 [51]: > 50 µM (inactive) | GI50 [52]: > 50 µM (inactive) | GI50 [53]: 9.02 µM (inactive) | GI50 [54]: > 42 µM (inactive) | GI50 [55]: > 47.1 µM | GI50 [56]: > 50 µM (inactive) | GI50 [57]: > 34.2 µM (inactive) | GI50 [58]: > 47.9 µM (inactive) | GI50 [59]: > 35 µM (inactive)
